According to patent US6709688B1, “Pigment” (Norsk Hydro ASA, priority 1999, dated 2004):
Like-named read-outs stand apart in the source and are kept apart here.

Legend:
[1] = tested on: crude enzyme mixture from salmon intestine; experiment: Hydrolysis with crude enzyme mixture from salmon intestine (Example 4); type: in vitro ADME; settings: after 48 hours hydrolysis; for Diol (%): diol = free astaxanthin
Description: (§1) Tris buffer (0.25 M) solution was prepared by dissolving Tris (4.54 g; 37.5 mmol) in 150 ml of distilled water. The pH of the buffer solution was adjusted to 8.0 by adding 2 M hydrochloric acid. All the hydrolysis was done at room temperature so no special effort was necessary.
(§2) The astaxanthin diester was weighed accurately (˜40 mg, […]) along with 2.5 g of chremophor EL emulsifier (from BASF) into 100 ml Erlenmeyer flask. The solution was stirred vigorously for 20 minutes (until homogeneous) and then 20 ml of the Tris buffer was added and stirred for additional 10 minutes. The solution was suction filtered and the red filtrate was poured into 25 ml volumetric flask and diluted to the mark with buffer. Concentration of all the solution was determined spectrophotometically (492 nm) to be about 1 mg/ml, except for diacetate which was obtained in a lower concentration. All the solutions were stored in refrigerator wrapped in aluminium paper.
(§3) Fresh salmon and rainbow trout, that had been fed in the last 12 hours, were obtained from local fish farms. At the laboratory the fresh fish was cut open and the crude enzyme mixture extracted as follows: From the digestion line there were a lot of narrow tubes surrounded by fat tissue. Each of them was cut off and extracted by hand into a cooled container. The viscous solution (−50 ml) was diluted to 100 ml with 0.25 M Tris buffer and stirred for 30 minutes in an ice bath. Next step was centrifugation at 11.000 rpm for 20 minutes at 4° C. (RC5C from Du Pont). The water layer was extracted by pipette to another centrifuge glasses and the centrifugation repeated at 18.000 rpm for 30 minutes at 4° C. The water layer was transferred to Erlenmeyer flask and quickly frozen by liquid nitrogen. Before starting the reaction the mixture was thawed and purified by ultracentrifuge at 27.000 rpm for 45 minutes at 4° C. (157.000 g at top). The lipase preparation was obtained as a clear yellow solution.
(§4) Into a 10 ml round bottom flask was added 2 ml of stock solution and 3 ml of crude enzyme mixture from fish intestine. The flask was filled with nitrogen before closing, wrapped in aluminium paper and stirred for 48 hours. When finished, all the water was removed under reduced pressure (0.01 Torr) and redissolved in CH2Cl2. The solution was filtered through cotton wool plug and stored under nitrogen in a closed container. Analytical TLC was used to monitor the progress of the reaction with 5% acetone in CH2Cl2 as eluent (Diol(Rf=0.0-0.1), Monoest. (Rf=0.3-0.5), Diest. (Rf=0.8-0.9)). To determine the degree of hydrolysis all the samples were injected into analytical HPLC. [Eluent: 30% acetone in n-hexane. Column: Nucleosil 50-5 (2×30 cm) column. Flow rate: 0.15 ml/min. Detector: 470 nm (Diol Rf=0.4-0.5, Monoest. Rf=0.7, Diest. Rf=0.9-1.0)].
A similar experiment as in Example 2 was performed with enzymes from salmon intestinal fluid.
The diesters that were hydrolysed were prepared by esterification of astaxanthin with the following carboxylic acids:
Acetic acid, C16:0 (palmitic acid), fatty acids from a fish oil rich in omega-3 fatty acids (approx. 18% EPA and 12% DHA, called K30 in the tables below), a concentrate of omega-3 fatty acids (approx. 30% EPA and 20% DHA, called K55 in the tables below), the same concentrate of EPA and DHA as used in example 2 (approx. 50% EPA and 35% DHA, called ACD in the tables below), purified EPA (more than 95% EPA, called EPA in the tables) and purified DHA (more than 90% DHA, called DHA in the tables).

[2] = tested on: crude enzyme mixture from rainbow trout intestine; experiment: Hydrolysis with crude enzyme mixture from rainbow trout intestine (Example 5); type: in vitro ADME, rainbow trout (Oncorhynchus mykiss); settings: after 48 hours hydrolysis; for Diol (%): diol = free astaxanthin
Description: as §1, §2, §3, §4
A similar example as Example 2b was performed. However, for this Example crude enzyme preparation from rainbow trout (Oncorhynchus mykiss) was used. […] For the fish oil 37% was unreacted, while for ACD only 14% remained unreacted. As for salmon, we observe that EPA reacts faster than DHA (17 and 21% unreacted), however for rainbow trout we observe that an omega-3 concentrate like the ACD diester gives higher degree of hydrolysis than the diester of purified EPA.

[3] = tested on: enzymes from salmon intestinal fluid; experiment: Hydrolysis of astaxanthin diesters with enzymes from salmon intestinal fluid (Example 2); type: in vitro ADME, Atlantic salmon; settings: after 45 hours at room temperature
Description: To verify the hydrolysis data for these astaxanthin diesters obtained by using the commercial lipase, another similar experiment was performed by using enzyme isolated from the intestine of Atlantic salmon.
A similar experiment as Example 1 was performed with enzymes from salmon intestinal fluid. The intestinal fluid from salmon was collected as described from cod (Lie, Ø. et al., Comp. Biochem. Physiol., 80B (3), (1985), pp. 447-450). The following results were obtained after 45 hours at room temperature: […]

[4] = tested on: commercial lipase, Candida rugosa (Lipase AY, 30); experiment: Hydrolysis of astaxanthin diesters by commercial lipase
Description: We synthesised several other diesters in order to study whether these hydrolysed faster than the dipalmitate.
Diesters of astaxanthin were prepared with the following carboxylic acids: elaidic acid (trans-C18:1), palmitic acid (C16:0), decanoic acid (C10:0) and a concentrate of omega-3 fatty acids comprising approximately 50% eicosapentaenoic acid (EPA) (all cis C20:5 n3) and approximately 35% docosahexaenoic acid (DHA) (all cis C22:6 n3). The different diesters were firstly hydrolysed by a commercial lipase, Candida rugosa (Lipase AY, 30).

[5] = cited from earlier work

Compound	Diesters (%) [1]	Monoesters (%) [1]	Diol (%) [1]	Diesters (%) [2]	Monoesters (%) [2]	Diol (%) [2]	Free astaxanthin (%) [3]	Free astaxanthin (%) ([3]; listed as C10:0)	Free astaxanthin (%) ([3]; listed as didecanoate)	Free astaxanthin (%) [4]	Diol (%) ([1]; listed as diester of astaxanthin with palmitic acid (16:0))	pigmentation compared with the diol ([5]; literature)	absorption compared with free astaxanthin ([5]; rainbow trout, sea trout and Atlantic salmon)	Free astaxanthin (%) ([4]; after 42 hours at room temperature, commercial lipase Candida rugosa)
CC/C=C\C/C=C\C/C=C\C/C=C\C/C=C\C/C=C\CCC(=O)O[C@H]1CC(C)(C)C(/C=C/C(C)=C/C=C/C(C)=C/C=C/C=C(C)/C=C/C=C(C)/C=C/C2=C(C)C(=O)[C@@H](OC(=O)CC/C=C\C/C=C\C/C=C\C/C=C\C/C=C\C/C=C\CC)CC2(C)C)=C(C)C1=O [DHA]	44%	53%	3%	21%	55%	24%	–	–	–	–	–	–	–	–
CCCCCCCCCC(=O)O[C@H]1CC(C)(C)C(/C=C/C(C)=C/C=C/C(C)=C/C=C/C=C(C)/C=C/C=C(C)/C=C/C2=C(C)C(=O)[C@@H](OC(=O)CCCCCCCCC)CC2(C)C)=C(C)C1=O [10:0]	–	–	–	–	–	–	6%	hydrolysed much faster than the dipalmitate	6%	–	–	–	–	–
CC/C=C\C/C=C\C/C=C\C/C=C\C/C=C\CCCC(=O)O[C@H]1CC(C)(C)C(/C=C/C(C)=C/C=C/C(C)=C/C=C/C=C(C)/C=C/C=C(C)/C=C/C2=C(C)C(=O)[C@@H](OC(=O)CCC/C=C\C/C=C\C/C=C\C/C=C\C/C=C\CC)CC2(C)C)=C(C)C1=O [EPA]	27%	67%	6%	17%	58%	25%	–	–	–	–	–	–	–	–
CCCCCCCCCCCCCCCC(=O)O[C@H]1CC(C)(C)C(/C=C/C(C)=C/C=C/C(C)=C/C=C/C=C(C)/C=C/C=C(C)/C=C/C2=C(C)C(=O)[C@@H](OC(=O)CCCCCCCCCCCCCCC)CC2(C)C)=C(C)C1=O [16:0, astaxanthin dipalmitate, reference compound]	81%	19%	0%	71%	18%	11%	1%	–	–	40%	no free astaxanthin	less pigmentation than the diol	absorbed less easy than free astaxanthin	–
CCCCCCCCC=CCCCCCCCC(=O)OC1CC(C)(C)C(C=CC(C)=CC=CC(C)=CC=CC=C(C)C=CC=C(C)C=CC2=C(C)C(=O)C(OC(=O)CCCCCCCC=CCCCCCCCC)CC2(C)C)=C(C)C1=O (stereo not shown) [18:1]	–	–	–	–	–	–	1%	–	–	–	–	–	–	73%
CC(=O)O [Acetate]	13%	80%	7%	3%	83%	14%	–	–	–	–	–	–	–	–
